Laboratory results as given in the supplement of paper PMC10307832.

Assays:
Assay in all cases: relative viability (nuclei count vs DMSO), 5 days (fraction); higher = more cells survive
UMC-11 = system: UMC-11
Summary of the method: (§1)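 Relative viability equals treated-well nuclei counts divided by vehicle-well nuclei counts. Counts came from 4× images of lung cancer cell lines grown in 1536-well plates for 5 days after pin-tool dosing on the day after seeding. Dosing used one drug alone or a fixed anchor-drug dose plus five library-drug doses (not always all listed) in √10 steps, and values are medians of duplicate plates.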

NCI-H2405 = system: NCI-H2405
Summary of the method: as §1

NCI-H1437 = system: NCI-H1437
Summary of the method: as §1

LCLC-97TM1 = system: LCLC-97TM1
Summary of the method: as §1

NCI-H2085 = system: NCI-H2085
Summary of the method: as §1

NCI-H441 = system: NCI-H441
Summary of the method: as §1

NCI-H2170 = system: NCI-H2170
Summary of the method: as §1

ChaGo-K-1 = system: ChaGo-K-1
Summary of the method: as §1

ABC-1 = system: ABC-1
Summary of the method: as §1

NCI-H2023 = system: NCI-H2023
Summary of the method: as §1

HCC-78 = system: HCC-78
Summary of the method: as §1

NCI-H322M = system: NCI-H322M
Summary of the method: as §1

NCI-H1355 = system: NCI-H1355
Summary of the method: as §1

SK-MES-1 = system: SK-MES-1
Summary of the method: as §1

NCI-H2009 = system: NCI-H2009
Summary of the method: as §1

LOU-NH91 = system: LOU-NH91
Summary of the method: as §1

HOP-62 = system: HOP-62
Summary of the method: as §1

NCI-H727 = system: NCI-H727
Summary of the method: as §1

NCI-H23 = system: NCI-H23
Summary of the method: as §1

NCI-H1792 = system: NCI-H1792
Summary of the method: as §1

RERF-LC-KJ = system: RERF-LC-KJ
Summary of the method: as §1

NCI-H650 = system: NCI-H650
Summary of the method: as §1

NCI-H1755 = system: NCI-H1755
Summary of the method: as §1

In the case of `Cc1cnc(-c2cnc(NCCNc3ccc(C#N)cn3)nc2-c2ccc(Cl)cc2Cl)[nH]1` + Cc1nc(Nc2ncc(C(=O)Nc3c(C)cccc3Cl)s2)cc(N2CCN(CCO)CC2)n1 [Dasatinib] (partner 0.075 µM), the relative viability (UMC-11; first compound 0.08 µM) is reported as 0.515, the relative viability (UMC-11; first compound 0.253 µM) is reported as 0.542 and the relative viability (UMC-11; first compound 0.8 µM) is reported as 0.498. For the same compound, the relative viability (UMC-11; first compound 2.53 µM) was 0.527, the relative viability (NCI-H2405; first compound 0.08 µM) was 0.215 and the relative viability (NCI-H2405; first compound 0.253 µM) was 0.223. For the same compound, the relative viability (NCI-H2405; first compound 0.8 µM) was 0.223, the relative viability (NCI-H2405; first compound 2.53 µM) was 0.195 and the relative viability (NCI-H1437; first compound 0.08 µM) was 0.425. The relative viability (NCI-H1437; first compound 0.253 µM) was 0.369, the relative viability (NCI-H1437; first compound 0.8 µM) was 0.309 and the relative viability (NCI-H1437; first compound 2.53 µM) was 0.278. The relative viability (LCLC-97TM1; first compound 0.08 µM) was 0.796, the relative viability (LCLC-97TM1; first compound 0.8 µM) was 0.887 and the relative viability (LCLC-97TM1; first compound 2.53 µM) was 0.741. It also gave a relative viability (NCI-H2085; first compound 0.08 µM) of 0.247, a relative viability (NCI-H2085; first compound 0.253 µM) of 0.239 and a relative viability (NCI-H2085; first compound 0.8 µM) of 0.21. It also gave a relative viability (NCI-H2085; first compound 2.53 µM) of 0.239, a relative viability (NCI-H441; first compound 0.08 µM) of 0.672 and a relative viability (NCI-H441; first compound 0.253 µM) of 0.578. For the same compound, the relative viability (NCI-H441; first compound 0.8 µM) was 0.385, the relative viability (NCI-H441; first compound 2.53 µM) was 0.403 and the relative viability (NCI-H2170; first compound 0.08 µM) was 0.556. It also gave a relative viability (NCI-H2170; first compound 0.253 µM) of 0.345, a relative viability (NCI-H2170; first compound 0.8 µM) of 0.576 and a relative viability (NCI-H2170; first compound 2.53 µM) of 0.487. It also gave a relative viability (ChaGo-K-1; first compound 0.08 µM) of 0.607, a relative viability (ChaGo-K-1; first compound 0.253 µM) of 0.462 and a relative viability (ChaGo-K-1; first compound 0.8 µM) of 0.512. The relative viability (ChaGo-K-1; first compound 2.53 µM) was 0.515, the relative viability (ABC-1; first compound 0.08 µM) was 0.553 and the relative viability (ABC-1; first compound 0.8 µM) was 0.476. It also gave a relative viability (ABC-1; first compound 2.53 µM) of 0.417, a relative viability (NCI-H2023; first compound 0.08 µM) of 0.811 and a relative viability (NCI-H2023; first compound 0.253 µM) of 0.532. It also gave a relative viability (NCI-H2023; first compound 0.8 µM) of 0.599, a relative viability (NCI-H2023; first compound 2.53 µM) of 0.636 and a relative viability (HCC-78; first compound 0.08 µM) of 0.434. It also gave a relative viability (HCC-78; first compound 0.253 µM) of 0.364, a relative viability (HCC-78; first compound 0.8 µM) of 0.41 and a relative viability (HCC-78; first compound 2.53 µM) of 0.371. The relative viability (NCI-H322M; first compound 0.08 µM) was 0.246, the relative viability (NCI-H322M; first compound 0.253 µM) was 0.281 and the relative viability (NCI-H322M; first compound 0.8 µM) was 0.248. The relative viability (NCI-H322M; first compound 2.53 µM) was 0.274, the relative viability (NCI-H1355; first compound 0.08 µM) was 0.749 and the relative viability (NCI-H1355; first compound 0.253 µM) was 0.664. The relative viability (NCI-H1355; first compound 0.8 µM) was 0.746, the relative viability (NCI-H1355; first compound 2.53 µM) was 0.689 and the relative viability (SK-MES-1; first compound 0.08 µM) was 0.332. It also gave a relative viability (SK-MES-1; first compound 0.253 µM) of 0.425, a relative viability (SK-MES-1; first compound 0.8 µM) of 0.401 and a relative viability (SK-MES-1; first compound 2.53 µM) of 0.247. The relative viability (NCI-H2009; first compound 0.08 µM) was 0.322, the relative viability (NCI-H2009; first compound 0.253 µM) was 0.284 and the relative viability (NCI-H2009; first compound 0.8 µM) was 0.282. It also gave a relative viability (NCI-H2009; first compound 2.53 µM) of 0.231, a relative viability (LOU-NH91; first compound 0.08 µM) of 0.562 and a relative viability (LOU-NH91; first compound 0.253 µM) of 0.558. The relative viability (LOU-NH91; first compound 0.8 µM) was 0.55, the relative viability (LOU-NH91; first compound 2.53 µM) was 0.514 and the relative viability (HOP-62; first compound 0.08 µM) was 0.67. For the same compound, the relative viability (HOP-62; first compound 0.253 µM) was 0.668, the relative viability (HOP-62; first compound 0.8 µM) was 0.709 and the relative viability (HOP-62; first compound 2.53 µM) was 0.749. For the same compound, the relative viability (NCI-H727; first compound 0.08 µM) was 0.452, the relative viability (NCI-H727; first compound 0.253 µM) was 0.358 and the relative viability (NCI-H727; first compound 0.8 µM) was 0.339. The relative viability (NCI-H727; first compound 2.53 µM) was 0.54, the relative viability (NCI-H23; first compound 0.08 µM) was 0.879 and the relative viability (NCI-H23; first compound 0.253 µM) was 0.751. For the same compound, the relative viability (NCI-H23; first compound 0.8 µM) was 0.871, the relative viability (NCI-H23; first compound 2.53 µM) was 0.713 and the relative viability (NCI-H1792; first compound 0.08 µM) was 0.998. It also gave a relative viability (NCI-H1792; first compound 0.253 µM) of 0.777, a relative viability (NCI-H1792; first compound 0.8 µM) of 0.772 and a relative viability (NCI-H1792; first compound 2.53 µM) of 0.762. It also gave a relative viability (RERF-LC-KJ; first compound 0.08 µM) of 0.9, a relative viability (RERF-LC-KJ; first compound 0.253 µM) of 0.765 and a relative viability (RERF-LC-KJ; first compound 0.8 µM) of 0.796. For the same compound, the relative viability (RERF-LC-KJ; first compound 2.53 µM) was 0.752, the relative viability (NCI-H650; first compound 0.08 µM) was 0.497 and the relative viability (NCI-H650; first compound 0.253 µM) was 0.462. The relative viability (NCI-H650; first compound 0.8 µM) was 0.511, the relative viability (NCI-H650; first compound 2.53 µM) was 0.495 and the relative viability (NCI-H1755; first compound 0.08 µM) was 0.435. It also gave a relative viability (NCI-H1755; first compound 0.253 µM) of 0.427, a relative viability (NCI-H1755; first compound 0.8 µM) of 0.398 and a relative viability (NCI-H1755; first compound 2.53 µM) of 0.399.
